Target: T1, WT human SLACK (Homo sapiens, UniProt Q5JUK3)
T1 construct: host or cells: CHO-K1
T1 sequence (Q5JUK3 1-1235 isoform Q5JUK3-3): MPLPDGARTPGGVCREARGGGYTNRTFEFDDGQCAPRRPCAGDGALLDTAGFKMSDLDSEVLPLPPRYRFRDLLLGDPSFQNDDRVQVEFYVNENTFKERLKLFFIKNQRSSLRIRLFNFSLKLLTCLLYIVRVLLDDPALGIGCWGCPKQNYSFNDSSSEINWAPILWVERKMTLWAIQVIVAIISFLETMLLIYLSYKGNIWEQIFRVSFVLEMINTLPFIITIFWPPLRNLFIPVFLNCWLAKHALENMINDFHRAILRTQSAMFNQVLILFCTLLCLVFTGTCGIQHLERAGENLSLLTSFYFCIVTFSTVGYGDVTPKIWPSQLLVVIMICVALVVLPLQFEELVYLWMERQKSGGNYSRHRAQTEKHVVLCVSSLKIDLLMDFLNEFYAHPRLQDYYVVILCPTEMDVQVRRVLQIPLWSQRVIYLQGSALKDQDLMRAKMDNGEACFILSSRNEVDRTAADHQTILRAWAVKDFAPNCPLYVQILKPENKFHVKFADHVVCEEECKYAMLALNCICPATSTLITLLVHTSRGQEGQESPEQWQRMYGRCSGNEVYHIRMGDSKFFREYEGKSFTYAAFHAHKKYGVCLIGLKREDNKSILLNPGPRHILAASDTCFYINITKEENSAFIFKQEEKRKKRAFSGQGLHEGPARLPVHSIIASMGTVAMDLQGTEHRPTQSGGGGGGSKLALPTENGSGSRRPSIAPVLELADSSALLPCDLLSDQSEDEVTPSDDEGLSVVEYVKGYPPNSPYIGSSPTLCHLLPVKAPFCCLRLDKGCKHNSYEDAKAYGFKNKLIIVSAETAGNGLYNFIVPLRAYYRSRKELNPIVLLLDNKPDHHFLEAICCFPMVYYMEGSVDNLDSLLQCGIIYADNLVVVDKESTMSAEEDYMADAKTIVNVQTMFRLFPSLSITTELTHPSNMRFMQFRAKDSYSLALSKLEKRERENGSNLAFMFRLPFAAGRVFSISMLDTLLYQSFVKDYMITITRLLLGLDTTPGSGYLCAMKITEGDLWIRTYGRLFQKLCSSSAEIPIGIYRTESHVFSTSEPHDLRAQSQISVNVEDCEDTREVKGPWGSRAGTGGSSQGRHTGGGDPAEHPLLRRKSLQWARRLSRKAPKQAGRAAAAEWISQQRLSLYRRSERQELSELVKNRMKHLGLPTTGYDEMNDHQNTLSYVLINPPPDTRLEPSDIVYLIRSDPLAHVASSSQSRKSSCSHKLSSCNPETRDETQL
Experiment: Whole-cell automated patch clamp (APC) in CHO-K1 cells stably expressing WT human SLACK
Type: cell-based
Settings: for IC50 / WT SLACK inhibition, result in words: APC; for IC50: CHO-K1 cells stably expressing WT human SLACK, averages (n ≥ 3); for SLACK Imax: maximum inhibition at 30 µM test compound standardized to VU0606170 (set at 100%), WT human SLACK; for WT SLACK inhibition, result in words: concentrations 0.125 to 30 µM; for Fold less potent than hit 10 (SLACK inhibition): ratio of WT SLACK APC IC50 to hit 10
Protocol: Using concentrations ranging from 0.125 to 30 µM in half-log steps, a concentration–response relationship was generated for each new analog using our APC assay in CHO-K1 cells stably expressing WT SLACK. A minimum of three cells, i.e., replicates, were collected per concentration for each analog.
Automated patch clamp recording was performed with a SyncroPatch 768 PE system (Nanion, Munich, Germany) as previously described. Whole-cell recordings were performed at room temperature. Cells were harvested by first washing with PBS without Mg^2+ or Ca^2+ (Gibco, Billings, MT, USA) to remove cell culture medium, followed by dissociation with TryPLE (Gibco, Billings, MT, USA). Cells were then resuspended and diluted to 200,000 cells/mL in external solution. External solution contained 105 mM NaCl, 4 mM KCl, 1 mM MgCl2, 5 mM CaCl2, 10 mM HEPES, 40 mM N-Methyl-D-glucamine chloride, titrated to pH 7.4 with NaOH and osmolarity of 300 mOsm/kg; internal solution contained 70 mM NaCl, 70 mM KF, 10 mM KCl, 5 mM EGTA, 5mM HEPES, titrated to a pH 7.2 with KOH and osmolarity of 295 mOsm/kg.
The APC protocol was set as following: Cells were held at […] −80 mV for 100 ms, then a ramp protocol was performed from −100 mV to 80 mV at 0.4 mV/ms, hold the cell at −80 mV for another 100 ms, then steps were performed at −20 mV, 0 mV, +20 mV, +40 mV, and +60 mV for 100 ms of each step. Whole-cell currents were measured at 0 mV and normalized to current after external buffer addition.

SMILES	IC50	SLACK Imax	WT SLACK inhibition, result in words	Fold less potent than hit 10 (SLACK inhibition)
CC(C)(Oc1ccc(Cl)cc1)C(=O)Nc1cnc(Oc2ccccc2F)nc1 [Analog 10]	1.4 µM	–	–	–
CC(C)(Oc1ccc(Cl)cc1)C(=O)Nc1cnc(Oc2ccccc2)nc1 [Analog 15]	1.7 µM	–	–	–
CC(C)(Oc1ccc(Cl)cc1)C(=O)Nc1cnc(Oc2cccc(F)c2)nc1 [Analog 16]	2.1 µM	–	–	–
CC(C)(Oc1ccc(Cl)cc1)C(=O)Nc1cnc(Oc2ccc(F)cc2)nc1 [Analog 17]	1.8 µM	102%	–	–
CC(C)(Oc1ccc(Cl)cc1)C(=O)Nc1cnc(Oc2ccccc2Cl)nc1 [Analog 18]	1.2 µM	97%	–	–
CC(C)(Oc1ccc(Cl)cc1)C(=O)Nc1cnc(Oc2cccc(Cl)c2)nc1 [Analog 19]	1.5 µM	–	–	–
CC(C)(Oc1ccc(Cl)cc1)C(=O)Nc1cnc(Oc2ccc(Cl)cc2)nc1 [Analog 20]	1.2 µM	–	–	–
Cc1ccccc1Oc1ncc(NC(=O)C(C)(C)Oc2ccc(Cl)cc2)cn1 [Analog 21]	2.9 µM	–	–	–
Cc1cccc(Oc2ncc(NC(=O)C(C)(C)Oc3ccc(Cl)cc3)cn2)c1 [Analog 22]	2.3 µM	–	–	–
Cc1ccc(Oc2ncc(NC(=O)C(C)(C)Oc3ccc(Cl)cc3)cn2)cc1 [Analog 23]	1.7 µM	–	–	–
CC(C)(Oc1ccc(Cl)cc1)C(=O)Nc1cnc(Oc2ccccc2C(F)(F)F)nc1 [Analog 24]	1.7 µM	–	–	–
CC(C)(Oc1ccc(Cl)cc1)C(=O)Nc1cnc(Oc2cccc(C(F)(F)F)c2)nc1 [Analog 25]	1.9 µM	101%	–	–
CC(C)(Oc1ccc(Cl)cc1)C(=O)Nc1cnc(Oc2ccc(C(F)(F)F)cc2)nc1 [Analog 26]	1 µM	–	–	–
COc1ccccc1Oc1ncc(NC(=O)C(C)(C)Oc2ccc(Cl)cc2)cn1 [Analog 27]	1.5 µM	101%	–	–
COc1cccc(Oc2ncc(NC(=O)C(C)(C)Oc3ccc(Cl)cc3)cn2)c1 [Analog 28]	2.4 µM	101%	–	–
COc1ccc(Oc2ncc(NC(=O)C(C)(C)Oc3ccc(Cl)cc3)cn2)cc1 [Analog 29]	1.8 µM	–	–	–
CC(C)(Oc1ccc(Cl)cc1)C(=O)Nc1cnc(Oc2ccccc2OC(F)(F)F)nc1 [Analog 30]	1.4 µM	–	–	–
CC(C)(Oc1ccc(Cl)cc1)C(=O)Nc1cnc(Oc2ccc(OC(F)(F)F)cc2)nc1 [Analog 32]	1.9 µM	–	–	–
CC(C)(Oc1ccc(Cl)cc1)C(=O)Nc1cnc(Oc2ccccc2C#N)nc1 [Analog 33]	0.94 µM	–	–	–
CC(C)(Oc1ccc(Cl)cc1)C(=O)Nc1cnc(Oc2cccc(C#N)c2)nc1 [Analog 34]	1.7 µM	–	–	–
CC(C)(Oc1ccc(Cl)cc1)C(=O)Nc1cnc(Oc2ccc(C#N)cc2)nc1 [Analog 35]	1.1 µM	–	–	–
CC(C)(Oc1ccc(Cl)cc1)C(=O)Nc1cnc(Oc2ccc(S(C)(=O)=O)cc2)nc1 [Analog 36]	1.1 µM	–	–	–
CC(C)(Oc1ccc(Cl)cc1)C(=O)Nc1cnc(Oc2ccc(C(N)=O)cc2)nc1 [Analog 37]	> 10 µM	110%	only a weak inhibitor	–
CC(C)(Oc1ccc(Cl)cc1)C(=O)Nc1cnc(Oc2ccc(F)cc2F)nc1 [Analog 38]	1 µM	101%	–	–

SMILES	IC50	SLACK Imax	WT SLACK inhibition, result in words	Fold less potent than hit 10 (SLACK inhibition)
CC(C)(Oc1ccc(Cl)cc1)C(=O)Nc1cnc(Oc2cc(F)ccc2F)nc1 [Analog 39]	1.3 µM	101%	–	–
CC(C)(Oc1ccc(Cl)cc1)C(=O)Nc1cnc(Oc2ccc(F)c(F)c2)nc1 [Analog 41]	1.7 µM	–	–	–
CC(C)(Oc1ccc(Cl)cc1)C(=O)Nc1cnc(Oc2cc(F)cc(F)c2)nc1 [Analog 42]	1.4 µM	–	–	–
CC(C)(Oc1ccc(Cl)cc1)C(=O)Nc1cnc(Oc2c(F)cccc2Cl)nc1 [Analog 43]	0.58 µM	91%	–	–
CC(C)(Oc1ccccc1)C(=O)Nc1cnc(Oc2ccccc2F)nc1 [Analog 44]	> 10 µM	66%	only weakly active	–
CC(C)(Oc1ccccc1F)C(=O)Nc1cnc(Oc2ccccc2F)nc1 [Analog 45]	> 10 µM	25%	only weak inhibitors	–
Cc1ccccc1OC(C)(C)C(=O)Nc1cnc(Oc2ccccc2F)nc1 [Analog 50]	2.9 µM	–	–	approximately 2 fold
Cc1cccc(OC(C)(C)C(=O)Nc2cnc(Oc3ccccc3F)nc2)c1 [Analog 51]	–	–	inactive up to the top concentration of 30 µM	–
Cc1ccc(OC(C)(C)C(=O)Nc2cnc(Oc3ccccc3F)nc2)cc1 [Analog 52]	7.1 µM	97%	–	–
CC(C)(Oc1ccccc1C(F)(F)F)C(=O)Nc1cnc(Oc2ccccc2F)nc1 [Analog 53]	–	–	inactive up to the top concentration of 30 µM	–
CC(C)(Oc1cccc(C(F)(F)F)c1)C(=O)Nc1cnc(Oc2ccccc2F)nc1 [Analog 54]	3.7 µM	99%	–	–
CC(C)(Oc1ccc(C(F)(F)F)cc1)C(=O)Nc1cnc(Oc2ccccc2F)nc1 [Analog 55]	2.8 µM	101%	–	approximately 2 fold
CC(C)(Oc1ccccc1OC(F)(F)F)C(=O)Nc1cnc(Oc2ccccc2F)nc1 [Analog 56]	–	–	inactive up to the top concentration of 30 µM	–
CC(C)(Oc1cccc(OC(F)(F)F)c1)C(=O)Nc1cnc(Oc2ccccc2F)nc1 [Analog 57]	4.6 µM	98%	–	–
CC(C)(Oc1ccc(OC(F)(F)F)cc1)C(=O)Nc1cnc(Oc2ccccc2F)nc1 [Analog 58]	> 10 µM	104%	only weak inhibitors	–
CC(C)(Oc1ccc(C#N)cc1)C(=O)Nc1cnc(Oc2ccccc2F)nc1 [Analog 59]	> 10 µM	109%	only weak inhibitors	–
CC(C)(Oc1ccc(S(C)(=O)=O)cc1)C(=O)Nc1cnc(Oc2ccccc2F)nc1 [Analog 60]	–	–	inactive up to the top concentration of 30 µM	–
CC(C)(Oc1ccc(C(N)=O)cc1)C(=O)Nc1cnc(Oc2ccccc2F)nc1 [Analog 61]	–	–	inactive up to the top concentration of 30 µM	–
CC(C)(Oc1ccc(S(F)(F)(F)(F)F)cc1)C(=O)Nc1cnc(Oc2ccccc2F)nc1 [Analog 62]	4.1 µM	–	–	–
CC(C)(Oc1ccc(Cl)cc1)C(=O)Nc1cnc(Sc2ccccc2F)nc1 [Analog 63]	0.89 µM	101%	–	–
CC(C)(Oc1ccc(Cl)cc1)C(=O)Nc1cnc(Nc2ccccc2F)nc1 [Analog 64]	–	–	not tolerated	–
CN(c1ncc(NC(=O)C(C)(C)Oc2ccc(Cl)cc2)cn1)c1ccccc1F [Analog 65]	2.1 µM	–	–	–
CN(c1ccc(S(C)(=O)=O)cc1)c1ncc(NC(=O)C(C)(C)Oc2ccc(Cl)cc2)cn1 [Analog 67]	1.4 µM	101%	–	–
CC(C)(Sc1ccc(Cl)cc1)C(=O)Nc1cnc(Oc2ccccc2F)nc1 [Analog 68]	4.1 µM	–	–	approximately 3 fold
